In US6358699B1, “Assay for asymmetrical NG, NG dimethyl-l-arginine” (Cooke Pharma, priority 1999, dated 2002):

Molecular target: DDAH (Rattus norvegicus, UniProt O08557)
Test: DDAH activity toward ADMA versus SDMA
Format: biochemical
Details: ADMA versus SDMA as substrate
Description: DDAH, however, has at least 1000-fold higher activity toward ADMA than SDMA, and is therefore uniquely suited for use in an enzymatic assay for unequivocal measurement of ADMA in complex mixtures. Nevertheless an enzymatic ADMA assay using DDAH is problematical because of a number of interfering components in blood. Importantly, citrulline is present in blood, so that it would provide a large background which would substantially diminish the accuracy of an assay where citrulline is the final product which is determined as a measure of the amount of ADMA in the sample. In addition, urea which is also present in blood cross-reacts in the citrulline assay. Finally, porphyrins in blood interfere with the spectrophotometric determination of citrulline. In order to have an enzymatic assay using DDAH, it is essential to prevent these various blood components from interfering with the assay.

Chain of DDAH (O08557 whole entry): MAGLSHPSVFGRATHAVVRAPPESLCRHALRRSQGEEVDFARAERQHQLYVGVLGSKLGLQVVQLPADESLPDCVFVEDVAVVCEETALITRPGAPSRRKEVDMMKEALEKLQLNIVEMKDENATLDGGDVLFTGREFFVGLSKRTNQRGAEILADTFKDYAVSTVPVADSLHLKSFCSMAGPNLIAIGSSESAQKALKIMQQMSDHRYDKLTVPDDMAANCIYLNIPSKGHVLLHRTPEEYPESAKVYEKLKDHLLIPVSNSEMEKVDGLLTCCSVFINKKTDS

Compound: CN(C)C(N)=NCCC[C@H](N)C(=O)O [ADMA, asymmetric dimethylarginine]
- DDAH activity toward ADMA relative to SDMA: at least 1000 fold
